Assay results as given in patent US11168078B2, “Sulfoximine, sulfonimidamide, sulfondiimine and diimidosulfonamide compounds as inhibitors of indoleamine 2,3-dioxygenase” (Shanghai Fochon Pharmaceutical Co., Ltd., priority 2016, dated 2021).

biological target: T1, IDO (Homo sapiens, UniProt P14902); test: IDO Cell-Based NEK Green Assay (NFK Green, N-formyl kynurenine level); conditions: Hela cells, 1 mM L-Tryptophan, 100 ng/mL recombinant human interferon-gamma, 2 days, NFK Green fluorescence
T1 construct: endogenous in cells; host or cells: HeLa cells stimulated with recombinant human interferon-gamma
T1 sequence (P14902 whole entry): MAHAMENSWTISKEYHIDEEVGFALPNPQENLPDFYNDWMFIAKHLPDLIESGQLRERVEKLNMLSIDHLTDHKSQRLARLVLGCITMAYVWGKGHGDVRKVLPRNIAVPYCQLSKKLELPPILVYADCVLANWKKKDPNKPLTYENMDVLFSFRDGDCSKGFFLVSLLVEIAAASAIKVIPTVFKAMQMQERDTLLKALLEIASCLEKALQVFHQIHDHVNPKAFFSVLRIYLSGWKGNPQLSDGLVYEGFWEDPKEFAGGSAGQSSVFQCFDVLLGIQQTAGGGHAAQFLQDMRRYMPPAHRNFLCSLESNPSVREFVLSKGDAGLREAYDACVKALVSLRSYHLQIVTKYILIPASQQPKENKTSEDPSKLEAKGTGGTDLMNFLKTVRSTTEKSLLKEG
Method: IDO Cell-Based NEK Green Assay
Materials: RPMI 1640 (phenol red free) (Invitrogen Cat. No. 11835030), Fetal Bovine Serum (Invitrogen Cat. No. 10099141), Penicillin-Streptomycin (Invitrogen Gibco Cat. No. 15140-122), Cellular assay kit (NTRC, Cat. No. NTRC-GSCell-1K), DMSO (Sigma, Cat. No. D2650), 384 wells_compound plate (Greiner, Cat. No. 781280), 384 wells_assay plate (Greiner, Cat. No. 781091)
The concentrations of test compounds varied from 5 μM to 0.76 nM with 3-fold dilution, 10 points, in duplicates.
Hela cells were seeded at 8,000 cells per well with RPMI/phenol red free media containing 10% FBS in a 384-well tissue culture plate. Mixture of compounds and 1 mM L-Tryptophan were added to cells; and then the recombinant human interferon-gamma was added at the final concentration of 100 ng/mL to activate IDO signaling. The cells were incubated for 2 days in 37° C. incubator with 5% CO2. After that, NFK Green was used to detect the N-formyl kynurenine level by following the commercial kit instruction. The fluorescent signal was measured by Envision plate Reader (excitation, 400/25; emission, 510/20). Curves are fit by XLFIT5 as % inhibition vs. log [compound concentration] using a 4 parameters logistic model 205.
Select compounds prepared as described above were assayed according to the biological procedures described herein.

IC50	Compound
16.5 nM	CCS(=N)(=O)NCCCNc1nonc1/C(=N/O)Nc1ccc(F)c(Cl)c1 (stereo not drawn) [Example 27, (Z)-N-(3-chloro-4-fluorophenyl)-4-[(3-ethanesulfonoimidamidopropyl)amino]-N′-hydroxy-1,2,5-oxadiazole-3-carboximidamide]
13.3 nM	(Z)—N-(3-ethynyl-4-fluorophenyl)-N′-hydroxy-4-((2-(methylsulfonoamidimidamido)ethyl)amino)-1,2,5-oxadiazole-3-carboximidamide [Example 19]
12.2 nM	CS(=N)(=N)CCNc1nonc1/C(=N/O)Nc1ccc(F)c(Br)c1 [Example 20, (Z)—N-(3-bromo-4-fluorophenyl)-4-({2-[diimino(methyl)-λ^6-sulfanyl]ethyl}amino)-N′-hydroxy-1,2,5-oxadiazole-3-carboximidamide]
52.3 nM	N=S(=N)(CCNc1nonc1/C(=N/O)Nc1ccc(F)c(Br)c1)C1CC1 [Example 39, (Z)-N-(3-bromo-4-fluorophenyl)-4-{[2-(cyclopropyldiimino-λ^6-sulfanyl)ethyl]amino}-N′-hydroxy-1,2,5-oxadiazole-3-carboximidamide]
63.6 nM	CS(C)(=O)=NCCCNc1nonc1/C(=N/O)Nc1ccc(F)c(Br)c1 [Example 30, (Z)-N-(3-bromo-4-fluorophenyl)-4-((3-((dimethyl(oxo)-λ^6-sulfanylidene)amino)propyl)amino)-N′-hydroxy-1,2,5-oxadiazole-3-carboximidamide]
9.7 nM	CCS(=N)(=N)CCNc1nonc1/C(=N/O)Nc1ccc(F)c(Br)c1 [Example 34, (Z)-N-(3-bromo-4-fluorophenyl)-4-{[2-(ethyldiimino-λ^6-sulfanyl)ethyl]amino}-N′-hydroxy-1,2,5-oxadiazole-3-carboximidamide]
112 nM	CS(C)(=O)=NCCCNc1nonc1/C(=N/O)Nc1ccc(F)c(Cl)c1 [Example 31, (Z)-N-(3-chloro-4-fluorophenyl)-4-((3-((dimethyl(oxo)-λ^6-sulfanylidene)amino)propyl)amino)-N′-hydroxy-1,2,5-oxadiazole-3-carboximidamide]
26.5 nM	C#Cc1cc(N/C(=N\O)c2nonc2NCCN=S(C)(C)=O)ccc1F [Example 29, (Z)-4-((2-((dimethyl(oxo)-λ^6-sulfanylidene)amino)ethyl)amino)-N-(3-ethynyl-4-fluoro-phenyl)-N′-hydroxy-1,2,5-oxadiazole-3-carboximidamide]
13.3 nM	CC(C)S(=N)(=N)CCNc1nonc1/C(=N/O)Nc1ccc(F)c(Br)c1 [Example 38, (Z)-N-(3-bromo-4-fluorophenyl)-4-({2-[diimino(propan-2-yl)-λ^6-sulfanyl]ethyl}amino)-N′-hydroxy-1,2,5-oxadiazole-3-carboximidamide]
14 nM	CS(=N)(=O)NCCCNc1nonc1/C(=N/O)Nc1ccc(F)c(Cl)c1 (stereo not drawn) [Example 26, (Z)-N-(3-chloro-4-fluorophenyl)-N′-hydroxy-4-[(3-methanesulfonoimidamidopropyl)amino]-1,2,5-oxadiazole-3-carboximidamide]
33.2 nM	CCS(=O)(=NC)NCCNc1nonc1/C(=N/O)Nc1ccc(F)c(Cl)c1 (stereo not drawn) [Example 23, (Z)-N-(3-chloro-4-fluorophenyl)-N′-hydroxy-4-((2-(N′-methylethylsulfonoamidimidamido)ethyl)amino)-1,2,5-oxadiazole-3-carboximidamide]
10.6 nM	CN=S(=O)(CCCNc1nonc1/C(=N/O)Nc1ccc(F)c(Br)c1)NC (stereo not drawn) [Example 17, (Z)—N-(3-bromo-4-fluorophenyl)-4-((3-(N,N′-dimethylsulfamidimidoyl)propyl)amino)-N′-hydroxy-1,2,5-oxadiazole-3-carboximidamide]
20.9 nM	COCCS(=N)(=N)CCNc1nonc1/C(=N/O)Nc1ccc(F)c(Br)c1 [Example 41, (Z)-N-(3-bromo-4-fluorophenyl)-4-({2-[diimino(2-methoxyethyl)-λ^6-sulfanyl]ethyl}amino)-N′-hydroxy-1,2,5-oxadiazole-3-carboximidamide]
23.9 nM	CCS(=O)(=NC)NCCNc1nonc1/C(=N/O)Nc1ccc(F)c(Br)c1 (stereo not drawn) [Example 33, (Z)-N-(3-bromo-4-fluorophenyl)-N′-hydroxy-4-((2-(N′-methylethylsulfonoamidimidamido)ethyl)amino)-1,2,5-oxadiazole-3-carboximidamide]
196 nM	CCS(=N)(=N)CCNc1nonc1/C(=N/O)Nc1ccc(F)c(C#N)c1 [Example 42, (Z)-N-(3-cyano-4-fluorophenyl)-4-{[2-(ethyldiimino-λ^6-sulfanyl)ethyl]amino}-N′-hydroxy-1,2,5-oxadiazole-3-carboximidamide]
17.5 nM	CCS(=N)(=O)NCCNc1nonc1/C(=N/O)Nc1ccc(F)c(Cl)c1 (stereo not drawn) [Example 25, (Z)-N-(3-chloro-4-fluorophenyl)-4-((2-(ethylsulfonoamidimidamido)ethyl)amino)-N′-hydroxy-1,2,5-oxadiazole-3-carboximidamide]
73.5 nM	C#Cc1cc(N/C(=N\O)c2nonc2NCCS(=N)(=N)CC)ccc1F [Example 44, (Z)-4-{[2-(ethyldiimino-λ^6-sulfanyl)ethyl]amino}-N-(3-ethynyl-4-fluorophenyl)-N′-hydroxy-1,2,5-oxadiazole-3-carboximidamide]
64.4 nM	O=S1(=NCCCNc2nonc2/C(=N/O)Nc2ccc(F)c(Cl)c2)CCC1 [Example 32, (Z)-N-(3-chloro-4-fluorophenyl)-N′-hydroxy-4-((3-((1-oxido-1λ^6-thietan-1-ylidene)amino)propyl)amino)-1,2,5-oxadiazole-3-carboximidamide]
23.2 nM	CN=S(=O)(CCCNc1nonc1/C(=N/O)Nc1ccc(F)c(Cl)c1)NC (stereo not drawn) [Example 18, (Z)—N-(3-chloro-4-fluorophenyl)-4-((3-(N,N′-dimethylsulfamidimidoyl)propyl)amino)-N′-hydroxy-1,2,5-oxadiazole-3-carboximidamide]
8.2 nM	CCS(=N)(=O)NCCCNc1nonc1/C(=N/O)Nc1ccc(F)c(Br)c1 (stereo not drawn) [Example 24, (Z)-N-(3-bromo-4-fluorophenyl)-4-[(3-ethanesulfonoimidamidopropyl)amino]-N′-hydroxy-1,2,5-oxadiazole-3-carboximidamide]
33.7 nM	CS(=N)(=N)CCNc1nonc1/C(=N/O)Nc1ccc(F)c(Cl)c1 [Example 35, (Z)-N-(3-chloro-4-fluorophenyl)-4-({2-[diimino(methyl)-λ^6-sulfanyl]ethyl}amino)-N′-hydroxy-1,2,5-oxadiazole-3-carboximidamide]
27.5 nM	CN=S(C)(=O)NCCNc1nonc1/C(=N/O)Nc1ccc(F)c(Cl)c1 (stereo not drawn) [Example 22, (Z)-N-(3-chloro-4-fluorophenyl)-N′-hydroxy-4-((2-(N′-methylmethylsulfonoamidimidamido)ethyl)amino)-1,2,5-oxadiazole-3-carboximidamide]
20.5 nM	CCS(=N)(=N)CCCNc1nonc1/C(=N/O)Nc1ccc(F)c(Br)c1 [Example 37, (Z)-N-(3-bromo-4-fluorophenyl)-4-{[3-(ethyldiimino-λ^6-sulfanyl)propyl]amino}-N′-hydroxy-1,2,5-oxadiazole-3-carboximidamide]
46.7 nM	CS(=N)(=N)CCCNc1nonc1/C(=N/O)Nc1ccc(F)c(Br)c1 [Example 36, (Z)-N-(3-bromo-4-fluorophenyl)-4-({3-[diimino(methyl)-λ^6-sulfanyl]propyl}amino)-N′-hydroxy-1,2,5-oxadiazole-3-carboximidamide]
238 nM	C#Cc1cc(N/C(=N\O)c2nonc2NCCS(C)(=N)=N)ccc1F [Example 43, (Z)-4-({2-[diimino(methyl)-λ^6-sulfanyl]ethyl}amino)-N-(3-ethynyl-4-fluorophenyl)-N′-hydroxy-1,2,5-oxadiazole-3-carboximidamide]
16.3 nM	C#Cc1cc(N/C(=N\O)c2nonc2NCCNS(=N)(=O)CC)ccc1F (stereo not drawn) [Example 21, (Z)-4-((2-(ethylsulfonoamidimidamido)ethyl)amino)-N-(3-ethynyl-4-fluorophenyl)-N′-hydroxy-1,2,5-oxadiazole-3-carboximidamide]
39.1 nM	N=S(=N)(CCO)CCNc1nonc1/C(=N/O)Nc1ccc(F)c(Br)c1 [Example 40, (Z)-N-(3-bromo-4-fluorophenyl)-N′-hydroxy-4-({2-[(2-hydroxyethyl)diimino-λ^6-sulfanyl]ethyl}amino)-1,2,5-oxadiazole-3-carboximidamide]
